Tests used:
[1] = test system: CEM cells; assay: cells; assay type: cell-based, human; conditions: for % inhibition at 100 μM, CEM Cells: four day incubation, MTT
Procedure: (§1) The cytotoxicity testing as performed herein is a standard technique. Briefly, cells are seeded in 96-well plates at various concentrations (dependent on cell type, duration of assay), typically at 5×10^3 cells per well, in the presence of increasing concentrations of the test compound (0, 1, 3, 10, 33, and 100 μM). After three (Vero cells), or four (CEM cells), or five (PBM cells) day-incubation, cell viability and mitochondrial activity are measured by adding the MTT-dye (Promega), followed by a 8 hours incubation. Afterwards the plates containing the dye are fixed by adding a stop-solution followed by another eight hour incubation. Finally, absorbance is read at 570 nm. Such methodologies are well described and available from the manufacturer (Promega).

[2] = test system: PBM cells; assay: cells; assay type: cell-based, human; conditions: for % inhibition at 100 μM, PBM cells: five day incubation, MTT
Procedure: as §1

[3] = test system: Vero cells; assay: cells; assay type: cell-based; conditions: for % inhibition at 100 μM, Vero Cells: three day incubation, MTT
Procedure: as §1

[4] = test system: HCV replicon; assay: HCV replicon system in Huh7 cells, replicon RNA by Q-RT-PCR (HCV ΔCt, ΔΔCt); assay type: cell-based, hepatitis C virus; conditions: for Ave. ΔΔCt: HCV RNA ΔCt minus rRNA ΔCt; for Ave. HCV RNA ΔCt: HCV replicon in Huh7 cells; for average ΔΔCt: HCV RNA ΔCt minus rDNA ΔCt
[5] = test system: rRNA (host RNA polymerase I product); assay: rRNA ΔCt in Huh7 replicon cells (effect on host RNA polymerases); conditions: Table 24, average of n
Text: In a typical setting, a compound might reduce both the host RNA polymerase activity and the replicon-encoded polymerase activity. Therefore, quantification of rRNA (or any other host RNA polymerase I product) or beta-actin mRNA (or any other host RNA polymerase II) and comparison with RNA levels of the no-drug control is a relative measurement of the effect of the test compound on host RNA polymerases.
With the availability of both the HCV ΔCt data and the rRNA ΔCt, a specificity parameter can be introduced. This parameter is obtained by subtracting both ΔCt values from each other.

[6] = test system: rDNA (host DNA); assay: rDNA ΔCt in Huh7 replicon cells (effect on cellular DNA polymerases); conditions: Table 25, average of N
Text: In another typical setting, a compound might reduce the host RNA polymerase activity, but not the host DNA polymerase activity. Therefore, quantification of rDNA or beta-actin DNA (or any other host DNA fragment) and comparison with DNA levels of the no-drug control is a relative measurement of the inhibitory effect of the test compound on cellular DNA polymerases.
With the availability of both the HCV ΔCt data and the rDNA ΔCt, a specificity parameter can be introduced. This parameter is obtained by subtracting both ΔCt values from each other.

Compound | IC50 [1] | % inhibition at 100 μM, CEM Cells [1] | IC50 [2] | % inhibition at 100 μM, PBM cells [2] | IC50 [3] | % inhibition at 100 μM, Vero Cells [3] | Ave. ΔΔCt ([4]; Table 24) | Ave. HCV RNA ΔCt ([4]; Table 24, average of n) | average ΔΔCt ([4]; Table 25) | Ave. HCV RNA ΔCt ([4]; Table 25, average of N) | Ave. rRNA ΔCt [5] | Ave. rDNA ΔCt [6]
O=c1[nH]c(=O)n([C@@H]2C[C@H](CO)[C@@H](O)[C@H]2O)cc1F [β-D-GF] | > 100 µM | 11.2% | > 100 µM | −46.2% | > 100 µM | 4.3% | – | – | – | – | – | –
Nc1nc(=O)n([C@@H]2C=C(CO)[C@@H](O)[C@H]2O)cc1F [β-D-HB] | – | – | – | – | – | – | 1.30 | 2.94 | 0.40 | 1.90 | 1.65 | 1.19
Nc1nc(Cl)c2ncn([C@H]3CS[C@@H](CO)O3)c2n1 [β-D-KB] | – | – | – | – | – | – | 1.10 | 3.61 | 3.81 | 3.81 | 2.52 | 0.00
O=c1nc2n(cc1F)[C@@H]1O[C@H](CO2)[C@@H](O)[C@H]1O [β-D-LA] | – | – | – | – | – | – | 0.89 | 3.85 | 1.98 | 3.54 | 4.10 | 1.56
CC(=O)O[C@H]1[C@@H]2Oc3nc(=N)ccn3[C@@H]2O[C@@H]1CO [β-D-MD] | – | – | – | – | – | – | 1.62 | 3.57 | 1.46 | 3.50 | 1.95 | 1.58
N=c1ccn2c(n1)O[C@H]1[C@H](O)[C@@H](CO)O[C@H]12 [β-D-ME] | – | – | – | – | – | – | 1.64 | 2.89 | 1.36 | 2.89 | 1.25 | 1.53
N=c1nc2n(cc1F)[C@@H]1O[C@H](CO)[C@@H](O)[C@@H]1O2 [β-D-MF] | – | – | – | – | – | – | 1.10 | 3.79 | 1.65 | 3.79 | 2.69 | 2.17
Nc1nc(SSc2nc(N)nc3c2ncn3[C@@H]2O[C@H](CO)[C@@H](O)[C@H]2O)c2ncn([C@@H]3O[C@H](CO)[C@@H](O)[C@H]3O)c2n1 [β-D-QA] | – | – | – | – | – | – | −0.89 | 2.91 | 2.55 | 4.85 | 3.81 | 2.30
Nc1nc(=O)c([C@@H]2O[C@H](CO)[C@@H](O)[C@H]2O)c[nH]1 [β-D-RB] | – | – | – | – | – | – | 1.12 | 4.30 | 2.74 | 4.00 | 3.18 | 1.27
N=c1nc2c(c[nH]1)[C@@H]1O[C@H](CO)[C@@H](O)[C@@H]1O2 [β-D-TA] | – | – | – | – | – | – | 0.69 | 4.00 | 0.93 | 4.00 | 3.31 | 3.07
Nc1ncnc2c([C@@H]3O[C@H](CO)[C@@H](O)[C@H]3O)cnn12 [β-D-UA] | – | – | – | – | – | – | 1.3 | 2.91 | 2.41 | 2.91 | 1.61 | 0.50
Nc1nc(F)nc2c1ncn2[C@@H]1C=C[C@H](CO)O1 [β-L-FC] | – | – | – | – | – | – | 0.42 | 5.55 | 3.41 | 4.41 | 5.13 | 1.00
Nc1nc(=O)n([C@H]2C[C@@H](CO)[C@H](O)[C@@H]2O)cc1F [β-L-GA] | > 100 µM | 1.1% | > 100 µM | −113.2% | > 100 µM | 27.9% | – | – | – | – | – | –
O=c1ccn([C@@H]2CC[C@H](CO)C2)c(=O)[nH]1 [β-L-GC] | > 100 µM | −1.2% | > 100 µM | −53.2% | > 100 µM | −13.4% | – | – | – | – | – | –
Nc1ccn([C@H]2C[C@@H](CO)[C@H](O)[C@@H]2O)c(=O)n1 [β-L-GD] | > 100 µM | −79.7% | > 100 µM | −12.9% | > 100 µM | 0.8% | – | – | – | – | – | –
Nc1ccn(C2CCC(CO)C2)c(=O)n1 [β-L-GE] | > 100 µM | 0.0% | > 100 µM | −59.7% | > 100 µM | 10.6% | – | – | – | – | – | –
O=c1[nH]c(=O)n([C@H]2C[C@@H](CO)[C@H](O)[C@@H]2O)cc1F [β-L-GF] | > 100 µM | 35.1% | > 100 µM | −70.4% | > 100 µM | 33.8% | – | – | – | – | – | –
Nc1nc(=O)n([C@@H]2CC[C@H](CO)C2)cc1I [β-L-GG] | > 100 µM | 17.3% | > 100 µM | −34.6% | > 100 µM | 33.6% | – | – | – | – | – | –
Nc1nc(=O)n([C@H]2C[C@@H](CO)[C@H](O)[C@@H]2O)cc1I [β-L-GH] | > 100 µM | 19.7% | > 100 µM | −52.1% | > 100 µM | 27.0% | – | – | – | – | – | –
Nc1nc(=O)n([C@H]2C[C@@H](CO)[C@H](O)[C@@H]2O)cc1Cl [β-L-GI] | > 100 µM | 18.0% | > 100 µM | −47.8% | > 100 µM | 31.9% | – | – | – | – | – | –
Nc1nc(=O)n(C2CSC(CO)O2)cc1F [β-L-JB] | – | – | – | – | – | – | −0.90 | 3.65 | 2.45 | 3.65 | 4.55 | 1.20
OC[C@@H]1O[C@H](n2cnc3c(Cl)ncnc32)CS1 [β-L-KA] | – | – | – | – | – | – | −0.74 | 4.10 | 3.69 | 4.10 | 4.84 | 0.42
Nc1nc(F)nc2c1ncn2[C@@H]1CS[C@H](CO)O1 [β-L-KC] | – | – | – | – | – | – | −0.16 | 1.19 | 3.54 | 2.73 | 1.35 | −0.81
